For data set [1] the following is noted: human gut metagenome, 24 h, 2 µM.
The nature of data set [2]: The drug is tested on Z-004 corresponding to metagenome with ENA study accession number: PRJEB37062 and ENA sample accession number: ERS12561804 for biotransformation under anaerobic condition. The drug concentrations were measured over 9 timepoints collected between 0 and 24 hours of incubation by liquid-chromatography-coupled mass spectrometry (LC–MS). The note with it: 2 µM.

For data set [3] the following is noted: human gut metagenome, 24 h, 2 µM. This is another data set of the same source.
For data set [4] the following is noted: human gut metagenome, 24 h, 2 µM. The source holds these as a separate data set.
Data set [5] in a line: The drug is tested on WLS-170 corresponding to human gut metagenome with ENA study accession number: PRJEB37062 and ENA sample accession number: ERS12561762 for biotransformation under anaerobic condition. The drug concentrations were measured over 9 timepoints collected between 0 and 24 hours of incubation by liquid-chromatography-coupled mass spectrometry (LC–MS). The note with it: 2 µM.

The conditions of data set [6]: human gut metagenome, 24 h, 2 µM. This is another data set of the same source.
Data set [7] in a line: The drug is tested on Z-016 corresponding to mouse gut metagenome with ENA study accession number: PRJEB37062 and ENA sample accession number: ERS12561815 for biotransformation under anaerobic condition. The drug concentrations were measured over 9 timepoints collected between 0 and 24 hours of incubation by liquid-chromatography-coupled mass spectrometry (LC–MS). Conditions: 2 µM.

Data set [8] in a line: The drug is tested on Z-013 corresponding to rabbit gut metagenome with ENA study accession number: PRJEB37062 and ENA sample accession number: ERS12561813 for biotransformation under anaerobic condition. The drug concentrations were measured over 9 timepoints collected between 0 and 24 hours of incubation by liquid-chromatography-coupled mass spectrometry (LC–MS). Conditions: 2 µM.

For data set [9] the following is noted: human gut metagenome, 24 h, 2 µM. The source holds these as a separate data set.
The conditions of data set [10]: human gut metagenome, 24 h, 2 µM. This is another data set of the same source.
Data set [11] can be described thus: The drug is tested on Z-006 corresponding to mouse gut metagenome with ENA study accession number: PRJEB37062 and ENA sample accession number: ERS12561806 for biotransformation under anaerobic condition. The drug concentrations were measured over 9 timepoints collected between 0 and 24 hours of incubation by liquid-chromatography-coupled mass spectrometry (LC–MS). The note with it: 2 µM.

Data set [12] can be described thus: The drug is tested on WLS-082 corresponding to human gut metagenome with ENA study accession number: PRJEB37062 and ENA sample accession number: ERS12561751 for biotransformation under anaerobic condition. The drug concentrations were measured over 9 timepoints collected between 0 and 24 hours of incubation by liquid-chromatography-coupled mass spectrometry (LC–MS). Conditions: 2 µM.

A short description of data set [13]: The drug is tested on WLS-240 corresponding to human gut metagenome with ENA study accession number: PRJEB37062 and ENA sample accession number: ERS12561773 for biotransformation under anaerobic condition. The drug concentrations were measured over 9 timepoints collected between 0 and 24 hours of incubation by liquid-chromatography-coupled mass spectrometry (LC–MS). The note with it: 2 µM.

For data set [14] the following is noted: human gut metagenome, 24 h, 2 µM. This is another data set of the same source.
The conditions of data set [15]: human gut metagenome, 24 h, 2 µM. This is another data set of the same source.
Data set [16] is described as follows: The drug is tested on Z-010 corresponding to metagenome with ENA study accession number: PRJEB37062 and ENA sample accession number: ERS12561810 for biotransformation under anaerobic condition. The drug concentrations were measured over 9 timepoints collected between 0 and 24 hours of incubation by liquid-chromatography-coupled mass spectrometry (LC–MS). Conditions: 2 µM.

For data set [17] the following is noted: human gut metagenome, 24 h, 2 µM. The source holds these as a separate data set.
A short description of data set [18]: The drug is tested on Z-021 corresponding to metagenome with ENA study accession number: PRJEB37062 and ENA sample accession number: ERS12561820 for biotransformation under anaerobic condition. The drug concentrations were measured over 9 timepoints collected between 0 and 24 hours of incubation by liquid-chromatography-coupled mass spectrometry (LC–MS). The note with it: 2 µM.

This note sets out measurements from ChEMBL document CHEMBL5724914, “Linking interpersonal differences in gut microbiota composition and drug biotransformation activity” (2024).
Further: call rule not given here.

With `CCC1(c2ccc(N)cc2)CCC(=O)NC1=O` (centres undefined) [AMINOGLUTETHIMIDE], the “Bacterial Biotransformation” value in data set [1], in data set [2], in data set [3], in [4], in data set [5] and in data set [6] was “Compound NOT metabolized” in each case. The “Bacterial Biotransformation” value in data set [7], in data set [8], in [9], in [10], in data set [11] and in data set [12] was “Compound NOT metabolized” throughout. In addition, the “Bacterial Biotransformation” value in data set [13], in [14], in [15], in [16] and in [17] was “Compound NOT metabolized” in each case.
With `OC(CCN1CCCCC1)(c1ccccc1)C1CC2C=CC1C2` (centres undefined) [BIPERIDEN], the “Bacterial Biotransformation” value in [1] is “Compound NOT metabolized”; in data set [3], “Compound NOT metabolized”; in data set [4], “Compound metabolized”; in [5], “Compound metabolized”; in data set [6], “Compound NOT metabolized”; in data set [9], “Compound NOT metabolized”. Further, the “Bacterial Biotransformation” value in data set [10] is given as “Compound metabolized”; in data set [12] it was “Compound NOT metabolized”; in data set [13], “Compound NOT metabolized”; in [14], “Compound NOT metabolized”; in data set [15] it was “Compound NOT metabolized”; in data set [17] it was “Compound metabolized”.
Turning to `CN1C(=O)CCS(=O)(=O)C1c1ccc(Cl)cc1` (centres undefined) [CHLORMEZANONE], the “Bacterial Biotransformation” value is “Compound metabolized” in [1]; “Compound NOT metabolized” in data set [2]; “Compound NOT metabolized” in data set [3]; “Compound NOT metabolized” in [4]; “Compound metabolized” in data set [5]; “Compound metabolized” in [6]. In addition, the “Bacterial Biotransformation” value was “Compound NOT metabolized” in data set [7]; “Compound NOT metabolized” in [8]; “Compound NOT metabolized” in [9]; “Compound metabolized” in [10]; “Compound NOT metabolized” in [11]; “Compound NOT metabolized” in data set [12]. For the same compound, the “Bacterial Biotransformation” value in [13] is listed as “Compound metabolized”; in data set [14], “Compound NOT metabolized”; in data set [15], “Compound NOT metabolized”; in [16], “Compound NOT metabolized”; in data set [18], “Compound NOT metabolized”; in [17], “Compound NOT metabolized”.
With `CC(=O)O[C@]1(C(C)=O)CC[C@H]2[C@@H]3C=C(Cl)C4=CC(=O)[C@@H]5C[C@@H]5[C@]4(C)[C@H]3CC[C@@]21C` [CYPROTERONE ACETATE], the “Bacterial Biotransformation” value in data set [1], in data set [3], in [4], in data set [5], in data set [6] and in data set [9] was “Compound metabolized” in each case. Besides, the “Bacterial Biotransformation” value in data set [10] is reported as “Compound metabolized”; in data set [12] it was “Compound NOT metabolized”; in data set [13], “Compound metabolized”; in data set [14], “Compound metabolized”; in data set [15] it was “Compound metabolized”; in data set [16], “Compound metabolized”. The “Bacterial Biotransformation” value in [17] is “Compound NOT metabolized”.
For the compound `CN1C[C@H](C(=O)N[C@]2(C)O[C@@]3(O)[C@@H]4CCCN4C(=O)[C@H](Cc4ccccc4)N3C2=O)C=C2c3cccc4[nH]cc(c34)C[C@H]21.CN1C[C@H](C(=O)N[C@]2(C)O[C@@]3(O)[C@@H]4CCCN4C(=O)[C@H](Cc4ccccc4)N3C2=O)C=C2c3cccc4[nH]cc(c34)C[C@H]21.O=C(O)C(O)C(O)C(=O)O` [ERGOTAMINE TARTRATE], the “Bacterial Biotransformation” value in data set [1] is listed as “Compound metabolized”; in data set [3], “Compound NOT metabolized”; in data set [4] it was “Compound metabolized”; in [5] it was “Compound metabolized”; in data set [6] it was “Compound metabolized”; in [9], “Compound NOT metabolized”. Moreover, the “Bacterial Biotransformation” value is “Compound NOT metabolized” in [11], “Compound metabolized” in data set [13], “Compound metabolized” in [15] and “Compound NOT metabolized” in [17].
For the compound `COC(=O)C1=C(C)NC(C)=C(C(=O)OC(C)C)C1c1cccc2nonc12` (centres undefined) [ISRADIPINE], the “Bacterial Biotransformation” value is recorded as “Compound metabolized” in data set [1]; “Compound metabolized” in data set [2]; “Compound NOT metabolized” in data set [3]; “Compound metabolized” in data set [4]; “Compound metabolized” in data set [5]; “Compound metabolized” in data set [6]. The “Bacterial Biotransformation” value in data set [9], in data set [10], in data set [12], in data set [13], in [14] and in data set [15] was “Compound metabolized” each time. The “Bacterial Biotransformation” value in data set [17] is reported as “Compound NOT metabolized”.
Regarding `CN(C(=O)CN(CCO)CC(=O)N(C)C(C)(C)Cc1ccccc1)C(C)(C)Cc1ccccc1` [OXETHAZAINE], the “Bacterial Biotransformation” value in [1] was “Compound metabolized”; in data set [3], “Compound NOT metabolized”; in data set [4], “Compound metabolized”; in [5], “Compound metabolized”; in data set [6], “Compound metabolized”; in [9], “Compound metabolized”. The “Bacterial Biotransformation” value in [10] is given as “Compound metabolized”; in [12], “Compound metabolized”; in [13] it was “Compound metabolized”; in data set [14], “Compound metabolized”; in data set [15] it was “Compound metabolized”; in data set [17] it was “Compound NOT metabolized”.
Take `CN1CCN(CC/C=C2/c3ccccc3Sc3ccc(S(=O)(=O)N(C)C)cc32)CC1` [THIOTHIXENE]: the “Bacterial Biotransformation” value in [1] is “Compound metabolized”; in [3], “Compound NOT metabolized”; in data set [4] it was “Compound NOT metabolized”; in [5], “Compound metabolized”; in data set [6] it was “Compound NOT metabolized”; in data set [9], “Compound metabolized”. Besides, the “Bacterial Biotransformation” value in data set [10], in data set [12], in data set [13], in data set [14], in [15] and in data set [17] was “Compound metabolized” each time.
Consider `CS(=O)(=O)O.O.O.O.O=C1Cc2cc(CCN3CCN(c4nsc5ccccc45)CC3)c(Cl)cc2N1` [ZIPRASIDONE MESYLATE], for which the “Bacterial Biotransformation” value was “Compound metabolized” in data set [1]; “Compound metabolized” in [3]; “Compound metabolized” in [4]; “Compound metabolized” in data set [5]; “Compound NOT metabolized” in [6]; “Compound NOT metabolized” in data set [9]. The “Bacterial Biotransformation” value in data set [10] was “Compound metabolized”; in [12], “Compound metabolized”; in data set [13], “Compound metabolized”; in data set [14], “Compound metabolized”; in [15] it was “Compound metabolized”; in data set [17], “Compound NOT metabolized”.
